Test results taken from patent US20130150340A1, “6-(4-Hydroxy-phenyl)-1H-pyrazolo[3,4-b]pyridine-4-carboxylic acid amide derivatives as kinase inhibitors” (SANOFI, priority 2011, published 2013).

Molecular target: T1, human full-length recombinant PKC βII (Homo sapiens, UniProt P05771)
T1 construct: Active human full-length recombinant PKC βII; purchased Invitrogen GmbH, Darmstadt, Germany
Experiment: Determination of PKC βII inhibition (Caliper mobility-shift kinase assay)
Assay type: biochemical
Settings: example compounds at a final concentration of 1.14 μM (±0.15 μM); 60 min incubation at 32° C.
Description: Determination of PKC 3H Inhibition
PKC βII inhibition was determined according to the following protocol:
Active human full-length recombinant PKC βII and the peptide substrate, Fluorescein-RFARKGSLRQKNV, were purchased from Invitrogen GmbH, Darmstadt, Germany. Adenosine-5′-triphosphate (ATP), bovine serum albumine (BSA), dimethylsulphoxide (DMSO), 4-(2-hydroxyethyl)piperazine-1-ethanesulfonic acid (Hepes), Triton X-100, 1,2-Dioleoyl-sn-glycerol (DAG), L-α-Phosphatidyl-L-serine (PS), calcium chloride (CaCl2), and Pluronic F-68 were purchased from Sigma-Aldrich, Munich, Germany. Magnesium chloride, 1 M sodium hydroxide solution, 1M hydrochloric acid solution and EDTA were obtained from Merck Biosciences, Darmstadt, Germany.
Test compounds were diluted to three times the test concentration in buffer 1 (30 mM Hepes-NaOH, pH 7.4, 0.01% Pluronic F-68 and 3% (v/v) DMSO). The PKC βII enzyme was diluted to a concentration of 30 ng/ml in buffer 2 (30 mM Hepes-NaOH, pH 7.4, 15 mM MgCl2, 150 μM CaCl2, 150 μg/ml PS, 60 μg/ml DAG, and 0.045% (w/v) Triton X-100). The peptide substrate and ATP were diluted to concentrations of 3 μM and 120 μM, respectively, in buffer 2. Two μl of the compound solution were mixed with 2 μl of the diluted enzyme in a 384-well small volume microtiter plate (Greiner, Bio-One, Frickenhausen, Germany), and the kinase reaction was initiated by addition of 2 μl of the solution containing peptide substrate and ATP. After 60 min incubation at 32° C., the reaction was stopped by addition of 20 μl of a solution containing 130 mM Hepes-NaOH, pH 7.4, 0.0195% (v/v) Brij-35, 6.5 mM EDTA, 0.13% chip coating reagent 3 (Caliper Lifescience Inc, Hopkinton, Mass.) and 6.5% (v/v) DMSO. Phosphorylation of the substrate peptide was then detected on a Caliper 3000 instrument essentially as described by Pommereau et al (J. Biomol. Screening 2004, 9(5), […]), Separation conditions were as follows: Pressure −0.8 psi, upstream voltage −3000 V, downstream voltage −800 V. Positive controls (buffer 1 instead of compound) and negative controls (buffer 1 instead of compound and buffer 2 instead of kinase solution) were run in parallel on each plate. Fractional turnover (R) was determined as the height of the peak of the phosphorylated peptide product divided by the sum of the unphosphorylated substrate and phosphorylated product peak heights. Percent-inhibition values for the test compounds were determined using the formula
% Inhibition=100*(1−(Rcompound−Rnegative control)/(Rpositive control−Rnegative control).

T1 sequence (P05771 1-673 isoform P05771-2): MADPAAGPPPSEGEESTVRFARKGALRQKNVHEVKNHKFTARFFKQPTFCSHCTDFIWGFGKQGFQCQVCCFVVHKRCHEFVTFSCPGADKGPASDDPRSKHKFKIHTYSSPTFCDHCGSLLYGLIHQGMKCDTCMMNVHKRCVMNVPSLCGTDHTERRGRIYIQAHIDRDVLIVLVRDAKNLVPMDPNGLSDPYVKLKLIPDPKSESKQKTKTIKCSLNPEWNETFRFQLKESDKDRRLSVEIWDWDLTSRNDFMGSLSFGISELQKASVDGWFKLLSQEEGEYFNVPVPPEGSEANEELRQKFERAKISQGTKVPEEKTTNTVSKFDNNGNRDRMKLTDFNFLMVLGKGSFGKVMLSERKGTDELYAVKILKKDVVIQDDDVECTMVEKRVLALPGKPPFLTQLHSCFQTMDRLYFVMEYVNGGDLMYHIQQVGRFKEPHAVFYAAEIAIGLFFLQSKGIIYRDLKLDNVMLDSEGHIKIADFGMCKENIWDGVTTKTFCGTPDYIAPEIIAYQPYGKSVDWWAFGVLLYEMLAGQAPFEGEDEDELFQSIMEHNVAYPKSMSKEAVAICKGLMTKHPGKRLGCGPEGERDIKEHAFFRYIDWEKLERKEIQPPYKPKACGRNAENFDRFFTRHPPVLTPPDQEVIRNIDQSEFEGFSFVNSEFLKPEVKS

SMILES	inhibition at 1.14 µM
O=C1CCC(CNC(=O)c2cc(-c3ccc(O)cc3)nc3[nH]ncc23)N1 (stereo not shown) [Example 63, 6-(4-Hydroxy-phenyl)-1H-pyrazolo[3,4-b]pyridine-4-carboxylic acid (5-oxo-pyrrolidin-2-ylmethyl)-amide]	48%
CCN1CCCN(C(=O)c2cc(-c3ccc(O)cc3)nc3[nH]ncc23)CC1 [Example 64, (4-Ethyl-[1,4]diazepan-1-yl)-[6-(4-hydroxy-phenyl)-1H-pyrazolo[3,4-b]pyridin-4-yl]-methanone]	45%
CC1CCN(C2CCN(C(=O)c3cc(-c4ccc(O)cc4)nc4[nH]ncc34)C2)CC1 (stereo not shown) [Example 65, [6-(4-Hydroxy-phenyl)-1H-pyrazolo[3,4-b]pyridin-4-yl]-[3-(4-methyl-piperidin-1-yl)-pyrrolidin-1-yl]-methanone]	34%
CN1CCC(NC(=O)c2cc(-c3ccc(O)cc3)nc3[nH]ncc23)CC1 [Example 66, 6-(4-Hydroxy-phenyl)-1H-pyrazolo[3,4-b]pyridine-4-carboxylic acid (1-methyl-piperidin-4-yl)-amide]	59%
O=C(NC1CCN(C2CCCCC2)CC1)c1cc(-c2ccc(O)cc2)nc2[nH]ncc12 [Example 67, 6-(4-Hydroxy-phenyl)-1H-pyrazolo[3,4-b]pyridine-4-carboxylic acid (1-cyclohexyl-piperidin-4-yl)-amide]	64%
CC(=O)N1CCC(NC(=O)c2cc(-c3ccc(O)cc3)nc3[nH]ncc23)CC1 [Example 68, 6-(4-Hydroxy-phenyl)-1H-pyrazolo[3,4-b]pyridine-4-carboxylic acid (1-acetyl-piperidin-4-yl)-amide]	40%
O=C1CC[C@@H](NC(=O)c2cc(-c3ccc(O)cc3)nc3[nH]ncc23)CN1 [Example 69, 6-(4-Hydroxy-phenyl)-1H-pyrazolo[3,4-b]pyridine-4-carboxylic acid ((R)-6-oxo-piperidin-3-yl)-amide]	59%
CCN1CC2CC1CN2C(=O)c1cc(-c2ccc(O)cc2)nc2[nH]ncc12 (stereo not shown) [Example 70, (5-Ethyl-2,5-diaza-bicyclo[2.2.1]hept-2-yl)-[6-(4-hydroxy-phenyl)-1H-pyrazolo[3,4-b]pyridin-4-yl]-methanone]	46%
COCCN1CCN(C(=O)c2cc(-c3ccc(O)cc3)nc3[nH]ncc23)CC1 [Example 71, [6-(4-Hydroxy-phenyl)-1H-pyrazolo[3,4-b]pyridin-4-yl]-[4-(2-methoxy-ethyl)-piperazin-1-yl]-methanone]	27%
O=C(NC1CN2CCC1CC2)c1cc(-c2ccc(O)cc2)nc2[nH]ncc12 (stereo not shown) [Example 72, 6-(4-Hydroxy-phenyl)-1H-pyrazolo[3,4-b]pyridine-4-carboxylic acid (1-aza-bicyclo[2.2.2]oct-3-yl)-amide]	78%
CN1CCC(N(C)C(=O)c2cc(-c3ccc(O)cc3)nc3[nH]ncc23)CC1 [Example 73, 6-(4-Hydroxy-phenyl)-1H-pyrazolo[3,4-b]pyridine-4-carboxylic acid methyl-(1-methyl-piperidin-4-yl)-amide]	31%
O=C(c1cccnc1)N1CCN(C(=O)c2cc(-c3ccc(O)cc3)nc3[nH]ncc23)CC1 [Example 74, [6-(4-Hydroxy-phenyl)-1H-pyrazolo[3,4-b]pyridin-4-yl]-[4-(pyridine-3-carbonyl)-piperazin-1-yl]-methanone]	35%
O=C(NC1CCN(Cc2ccncc2)CC1)c1cc(-c2ccc(O)cc2)nc2[nH]ncc12 [Example 75, 6-(4-Hydroxy-phenyl)-1H-pyrazolo[3,4-b]pyridine-4-carboxylic acid (1-pyridin-4-ylmethyl-piperidin-4-yl)-amide]	45%
CN1CCN(C(=O)c2cc(-c3ccc(O)cc3)nc3[nH]ncc23)CC1=O [Example 76, 4-[6-(4-Hydroxy-phenyl)-1H-pyrazolo[3,4-b]pyridine-4-carbonyl]-1-methyl-piperazin-2-one]	30%
O=C(N[C@@H]1CCCN(Cc2ccccc2)C1)c1cc(-c2ccc(O)cc2)nc2[nH]ncc12 [Example 77, 6-(4-Hydroxy-phenyl)-1H-pyrazolo[3,4-b]pyridine-4-carboxylic acid ((R)-1-benzyl-piperidin-3-yl)-amide]	57%
O=C(NC1CCN(Cc2cccnc2)CC1)c1cc(-c2ccc(O)cc2)nc2[nH]ncc12 [Example 78, 6-(4-Hydroxy-phenyl)-1H-pyrazolo[3,4-b]pyridine-4-carboxylic acid (1-pyridin-3-ylmethyl-piperidin-4-yl)-amide]	84%
